This note sets out measurements from patent publication US7307101B2, “Use of 20-HETE synthesizing enzyme inhibitors as therapy for cerebral vascular disease” (MCW Research Foundation, Inc., priority 2000, dated 2007).

A word on the IC50: it is the concentration at which inhibition is half-maximal.

Data set [1] has as its system rat 20-HETE synthesizing enzyme. The data set can be described thus: Synthesis of 20-HETE in rat renal microsomes ([14C]-AA). The class given is biochemical. The following applies: 1.5 nM, lowest dose tested.
Protocol: Microsomes were prepared by differential centrifugation as previously described. […] The reactions were terminated by acidification to pH 3.5 using 0.1 mol/L formic acid and extracted with ethyl acetate. Metabolites were separated using a 25 cm×2 mm i.d. (Supelco Inc., Bellefonte, Pa.) C18-reverse phase HPLC column and a linear elution gradient ranging from acetonitrile:water: acetic acid (50/50/0.1) to acetonitrile:acetic acid (100/0.1) over a 40 min period. The radioactive products were monitored using a radioactive flow detector (Model 120, Radiomatic Instrument Co., Tampa, Fla.).
The subject of data set [2] is rats with SAH. The experiment in a line: Effect on rCBF after SAH, drug given before SAH. The class given is in vivo, rat. The following applies: rats pretreated before SAH, 17-ODYA 1.5 nmol intrathecally. On the procedure: Animals. Experiments were performed on male Sprague-Dawley rats (9-12 weeks old), purchased from Harlan Sprague-Dawley, Inc. (Indianapolis, Ind.). The rats were housed in an Animal Care Facility at the Medical College of Wisconsin, which is approved by the American Association for the Accreditation of Laboratory Animal Care. All protocols involving animals received approval by the Animal Care Committee of the Medical College of Wisconsin.
(§1) Surgical preparation. Rats were anesthetized with ketamine (Ketaject® 20 mg/kg i.m.) and thiobutabarbital sodium (Inactin® 50 mg/kg i.p.). A cannula was placed in the trachea and the rats were artificially ventilated using a small animal ventilator (SAR-830, CWE, Inc., Ardmore, Pa.) with a mixture of 30% O2 in N2. The femoral vein was cannulated for the infusion of drug and the rats received an i.v. infusion of 0.9% NaCl solution at a rate of […] to replace fluid losses. The femoral artery was cannulated for measurement of mean arterial pressure (MAP) and arterial blood gases. Endtidal partial pressure of carbon dioxide (pCO2) was controlled at 38 mmHg by adjusting the minute ventilation according to the reading of an CO2 analyzer (Capstar-100 IITC, Inc., Woodland Hills, Calif.). Blood samples were collected at the beginning and end of the experiment and analyzed using a blood gas analyzer (ABL 300, Radiometer, Copenhagen, Denmark) to validate the endtidal pCO2 readings. Anesthesia was maintained by administering additional amounts of thiobutabarbital (8 mg/kg i.v.) as needed. Rectal body temperature was maintained at 37±1° C.
Induction of SAH and measurement of cerebral blood flow. SAH was induced by injection of 0.3 ml autologous arterial blood into the Cisterna Magna using a modification of a posterior cranio-cervical approach of a model of SAH. Delgado T J et al., Stroke 16: 595-602 (1985); Solomon R A et al., Stroke 16: 58-64 (1985). The head of the rat was placed in a stereotactic head holder and the atlanto-occipital membrane was exposed by bluntly separating the overlying neck muscles in the midline. The occipital bone and the atlas were visualized. A 30 gauge needle attached to PE-10 was inserted using a stereomicroscope into the Cistema Magna by penetrating the atlanto-occipital membrane. Then, 0.3 ml of freshly drawn unheparinized arterial blood was injected into the Cistema Magna at a rate of 35 μl/min using a syringe pump. This created a massive SAH that was confirmed in all rats at autopsy. Blood was found overlying the cerebello-medullary junction posteriorly and around the basal artery and the vessels of the Circle of Willis.
Cerebral blood flow (CBF) was continuously measured using laser Doppler flowmetry through a thinned cranial window. […] A PF 103 laser Doppler flow (LDF) probe was positioned over the cranial window and CBF was monitored using a PF-3 laser Doppler flowmeter (Perimed, Stockholm, Sweden).
Other animals received 17-ODYA (1.5 nmol) or vehicle in a volume of 50 μl that was injected directly into the Cistema Magna using a micromanipulator and a 30 gauge needle. The CBF recorded over the last 5 minutes of the control period immediately before initiation of SAH served as the control value. […] CBF was recorded for 2 min intervals at 10, 20, 30, 60, 90 and 120 minutes after completion of the injection of the blood. The CBF data are expressed as percentage change from control.

The subject of data set [3] is canine neutrophils. The data set can be described thus: Formation of 20-HETE by canine neutrophils. It is filed as cell-based. The following applies: Canis lupus familiaris, Neutrophil, read-out: IC50, formation of 20-HETE by canine neutrophils; 2×10^7 cells in dog CSF, 2 hours, n=4. On the procedure:
Experiments were performed to determine the cell type in canine blood responsible for the formation of 20-HETE. Experiments were performed using 4 male Beagle dogs. The dogs were anesthetized with sodium pentobarbital (30 mg/kg, i.v.). Venous blood sample was drawn and immediately mixed with 1:9 volume of trisodium citrate (3.8%) as an anticoagulant. Neutrophils were prepared to 98% purity using a percoll gradient technique. CSF was drawn from the Cistema Magna by using a 20 gauge needle. Only clear CSF sample without blood was used for the present experiment. The CSF was oxygenated with mixed gas (95% O2, 5% CO2) for 30 min. Neutrophils were suspended in the oxygenated CSF and cell numbers were adjusted to 2×10^6, 6.3×10^6, and 2×10^7. Whole blood (20 μl), red blood cells (20 μl) or neutrophils were incubated in the oxygenated CSF (180 μl) including 1 mM NADPH and [^3H]-AA at 37° C. for 2 hrs. The reaction was terminated by the addition of formic acid. One hundred percent acetonitrile (200 μl) was added to the reaction buffer to adjust final concentration to 50% for HPLC separation. […] The labeled products formed were monitored using a radioactive flow detector (raytest GmbH, Straubenhardt, Germany).
The reactions were terminated by addition of formic acid. […] The labeled metabolites were monitored using a radioactive flow detector ramona 93 (raytest GmbH, Straubenhardt, Germany).

The subject of data set [4] is EET formation in rat renal microsomes. The experiment in a line: EET formation in rat renal microsomes ([3H]-AA, Example 3). The following applies: highest concentration studied, 1,000 ng/ml or 5 μM. It is filed as biochemical. On the procedure: All procedure was carried out at 4° C. Renal cortex was pooled from twenty male SHR rats (6 weeks of age). They were homogenized extensively in lysis buffer (20 mM HEPES, pH 7.4, 1 mM EDTA, 100 μM p-(amidinophenyl)metanesulfonyl fluoride and 250 mM sucrose), and centrifuged at 16,000×g for 10 min. Supernatant was further centrifuged at 16,000×g for 30 min. Soluble fraction was collected and centrifuged at 200,000×g for 30 min. The resulting pellet was suspended in 50 mM MOPS buffer.
The reaction was terminated by adding formic acid and acetonitrile to a final concentration of 1% and 50%, respectively.

Data set [5] is described as follows: Physiological parameters (MAP, endtidal pCO2) during the SAH experiment. It is filed as in vivo, rat. The following applies: rats, any time. On the procedure: as §1

With `CCCCc1ccc(N=CNO)c(C)c1` [HET0016, N-hydroxy-N′-(4-butyl-2-methylphenyl)-formamidine], the “inhibition of rat 20-HETE synthesizing enzymes” value in data set [1] is “about 20%”. Further, the “reduction of the initial fall in rCBF at 10 min” value in data set [2] (HET0016 10 mg/kg i.v. 30 min prior) was “about 40%”. In addition, the “time after induction of SAH within which rCBF recovered fully to values not different from control” value in data set [2] (HET0016 10 mg/kg i.v.) is at most 60 min. The IC50 in data set [3] was 10.2 ± 1.3 nM. Moreover, in data set [4], the EET formation entry is “did not inhibit”. In addition, in data set [5], the “MAP (blood pressure) versus vehicle” value was “no difference” and the “endtidal pCO2 versus vehicle” value is “no significant differences”.
